Measurements reported in patent EP4568957B1, “SUBSTITUTED PHENYL OXOOXAZOLYL PIPERIDINE DIONE COMPOUNDS” (Bristol-Myers Squibb Company, priority 2023, dated 2025).

Legend:
Assay type in all cases: cell-based
IKZF1 Ikaros = IKZF1 Ikaros (Homo sapiens, UniProt Q13422+Q96SW2); assay: Human CD8+ T Cell Reprogramming Assay (method headed Human CD8+ T Cell Degradation Assay); parameters: Foxp3-BV421, HELIOS-PE-Cy7, EOS-PE, IKAROS-PECF594, AIOLOS-AF647; endogenous in cells; host or cells: human PBMC from healthy donors (CD8+ T cells gated by flow cytometry); details: for IKZF1* Ikaros max % deg. observed: Table E summary, Human CD8+ T Cell Reprogramming Assay (D-1); for DC50 / IKZF1 Ikaros Maximum Observed Degradation: human PBMC, CD8+ T cells, 24 hours; for DC50: vs DMSO alone
Sequence of IKZF1 Ikaros (Q13422 whole entry): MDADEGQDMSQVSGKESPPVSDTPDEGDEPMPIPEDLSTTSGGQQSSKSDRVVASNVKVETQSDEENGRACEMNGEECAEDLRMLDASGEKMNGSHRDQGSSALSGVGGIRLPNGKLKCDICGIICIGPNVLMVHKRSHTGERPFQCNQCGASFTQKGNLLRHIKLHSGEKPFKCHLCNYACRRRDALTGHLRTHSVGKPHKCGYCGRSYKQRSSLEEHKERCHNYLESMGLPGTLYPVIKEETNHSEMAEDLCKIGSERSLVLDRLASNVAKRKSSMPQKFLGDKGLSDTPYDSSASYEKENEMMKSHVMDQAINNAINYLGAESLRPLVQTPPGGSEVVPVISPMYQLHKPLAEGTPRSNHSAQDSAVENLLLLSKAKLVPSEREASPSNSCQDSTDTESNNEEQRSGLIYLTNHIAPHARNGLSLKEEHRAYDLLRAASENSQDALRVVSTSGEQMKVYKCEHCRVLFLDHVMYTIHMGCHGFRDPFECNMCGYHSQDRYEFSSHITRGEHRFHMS
Sequence of IKZF1 Ikaros (Q96SW2 whole entry): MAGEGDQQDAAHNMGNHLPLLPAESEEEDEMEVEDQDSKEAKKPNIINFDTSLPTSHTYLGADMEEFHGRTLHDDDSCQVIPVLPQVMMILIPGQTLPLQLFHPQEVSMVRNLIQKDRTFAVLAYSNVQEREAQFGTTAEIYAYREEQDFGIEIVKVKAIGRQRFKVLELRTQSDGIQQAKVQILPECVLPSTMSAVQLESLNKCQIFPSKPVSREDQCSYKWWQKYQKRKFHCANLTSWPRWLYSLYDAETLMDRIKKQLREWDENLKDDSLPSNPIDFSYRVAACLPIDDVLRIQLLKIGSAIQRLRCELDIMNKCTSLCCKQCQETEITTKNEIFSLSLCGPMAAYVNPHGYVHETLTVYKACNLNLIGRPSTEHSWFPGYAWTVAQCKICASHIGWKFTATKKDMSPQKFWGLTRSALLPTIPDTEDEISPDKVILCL
Sequence of IKZF1 Ikaros (Q16531 whole entry partner): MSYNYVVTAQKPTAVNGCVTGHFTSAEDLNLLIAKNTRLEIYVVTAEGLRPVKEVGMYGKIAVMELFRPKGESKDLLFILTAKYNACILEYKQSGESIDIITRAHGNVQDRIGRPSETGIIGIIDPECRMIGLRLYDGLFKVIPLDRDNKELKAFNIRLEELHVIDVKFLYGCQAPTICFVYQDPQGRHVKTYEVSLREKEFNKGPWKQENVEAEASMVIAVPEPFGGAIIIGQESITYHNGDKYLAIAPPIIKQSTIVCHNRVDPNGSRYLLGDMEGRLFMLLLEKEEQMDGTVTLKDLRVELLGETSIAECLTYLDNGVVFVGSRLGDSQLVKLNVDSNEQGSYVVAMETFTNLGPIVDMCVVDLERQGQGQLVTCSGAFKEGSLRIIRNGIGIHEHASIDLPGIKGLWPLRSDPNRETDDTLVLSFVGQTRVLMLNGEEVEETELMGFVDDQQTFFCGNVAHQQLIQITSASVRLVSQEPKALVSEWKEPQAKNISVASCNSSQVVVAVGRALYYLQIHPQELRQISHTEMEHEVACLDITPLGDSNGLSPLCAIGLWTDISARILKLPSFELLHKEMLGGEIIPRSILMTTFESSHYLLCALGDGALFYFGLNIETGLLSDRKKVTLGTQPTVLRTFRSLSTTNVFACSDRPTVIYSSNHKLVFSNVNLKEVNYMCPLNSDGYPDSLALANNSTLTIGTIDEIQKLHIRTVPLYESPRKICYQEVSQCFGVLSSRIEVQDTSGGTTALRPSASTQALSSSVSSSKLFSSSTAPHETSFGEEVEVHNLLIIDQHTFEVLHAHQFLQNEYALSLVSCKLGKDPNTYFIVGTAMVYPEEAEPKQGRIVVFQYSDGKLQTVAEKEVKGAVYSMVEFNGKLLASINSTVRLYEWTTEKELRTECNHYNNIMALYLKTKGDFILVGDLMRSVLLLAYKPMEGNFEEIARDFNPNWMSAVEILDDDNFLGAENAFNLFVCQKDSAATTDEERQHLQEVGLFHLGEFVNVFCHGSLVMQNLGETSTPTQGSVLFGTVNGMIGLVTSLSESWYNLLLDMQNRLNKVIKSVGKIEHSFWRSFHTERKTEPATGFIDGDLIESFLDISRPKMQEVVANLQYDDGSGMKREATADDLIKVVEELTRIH
Procedure: (§1) Cryopreserved healthy donor human peripheral blood mononuclear cells (PBMC) from healthy donors were thawed and seeded at 500,000 cells/well of 96-well round bottom plates in RPMI 1640 media (Gibco) supplemented with 10% FBS, Pen/Strep (Gibco), MEM-NEAA (Gibco), and sodium pyruvate (Gibco). Cells were treated with titrated doses of compound for 24 hours at 37 °C, 5% CO2, before analyzing by flow cytometry.
(§2) For flow cytometry staining, cells were washed twice with flow cytometry staining buffer (Thermo Fisher) and incubated in Human Tru-stain Fc block (Biolegend) for 10 minutes before adding eFluor780 viability dye (Thermo Fisher) and surface marker antibody cocktail containing LD-eFluor780, CD3-BUV-395, CD4-BUV805, CD8-FITC, and CD25-BV605 for 30 minutes at 4 °C, Cells were then fixed and permeabilized by incubation with permeabilization buffer (eBioscience FoxP3 buffer set 00-5523-00) for 30 minutes at 4 °C as per the kit manufacturer's instructions. Cells were washed twice with the Perm/Wash buffer supplied in the kit as per the manufacturer's instructions and incubated overnight at 4 °C with an intracellular antibody cocktail comprised of antibodies specific for the transcription factors (i.e. , Foxp3-BV421, HELIOS-PE-Cy7, EOS-PE, IKAROS-PECF594, AIOLOS-AF647). Cells were washed twice with Perm/Wash buffer and resuspended in flow cytometry staining buffer (Thermo Fisher) prior to acquisition. Sample acquisition and analysis was performed using a BD LSRFortessa (BD Biosciences) flow cytometer. Single-stain controls for each fluorochrome were prepared using UltraComp eBead Compensation Beads (Thermo Fisher). Data were analyzed using FlowJo version 10 and GraphPad Prism Software. TABLE D-1

IKZF3 Aiolos = IKZF3 Aiolos (Homo sapiens, UniProt Q96SW2+Q9UKT9); assay: as above; parameters: Foxp3-BV421, HELIOS-PE-Cy7, EOS-PE, IKAROS-PECF594, AIOLOS-AF647; endogenous in cells; host or cells: human PBMC from healthy donors (CD8+ T cells gated by flow cytometry); details: for IKZF3* Aiolos max % deg. observed: Table E summary, Human CD8+ T Cell Reprogramming Assay (D-1); for DC50 / IKZF3 Aiolos Maximum Observed Degradation: human PBMC, CD8+ T cells, 24 hours; for DC50: vs DMSO alone
Sequence of IKZF3 Aiolos (Q9UKT9 whole entry): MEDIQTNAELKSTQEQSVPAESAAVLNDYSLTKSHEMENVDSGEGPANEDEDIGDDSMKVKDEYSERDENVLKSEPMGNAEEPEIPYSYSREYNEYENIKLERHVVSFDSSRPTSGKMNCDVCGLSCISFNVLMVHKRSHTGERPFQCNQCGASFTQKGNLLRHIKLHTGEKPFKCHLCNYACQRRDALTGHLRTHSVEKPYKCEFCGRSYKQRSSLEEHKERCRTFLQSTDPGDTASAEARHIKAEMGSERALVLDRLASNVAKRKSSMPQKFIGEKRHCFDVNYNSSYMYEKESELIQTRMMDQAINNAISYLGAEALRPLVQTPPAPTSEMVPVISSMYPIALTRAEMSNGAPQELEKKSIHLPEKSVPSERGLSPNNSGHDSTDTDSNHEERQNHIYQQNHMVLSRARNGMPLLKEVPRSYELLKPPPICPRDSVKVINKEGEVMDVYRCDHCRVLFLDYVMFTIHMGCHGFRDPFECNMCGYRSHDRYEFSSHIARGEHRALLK
Sequence of IKZF3 Aiolos (Q96SW2 whole entry): as the sequence (Q96SW2 whole entry) above
Sequence of IKZF3 Aiolos (Q16531 whole entry partner): as the sequence (Q16531 whole entry partner) above
Procedure: as §1, §2

IKZF4 Eos = molecular target: T1, IKZF4 Eos (Homo sapiens, UniProt Q96SW2+Q9H2S9); assay: Human Regulatory T Cell Reprogramming Assay; details: for DC50: 12-13 days, vs DMSO alone; for IKZF4*** Eos max % or deg. observed: Table E summary, Human Regulatory T Cell Reprogramming Assay (C-1)
T1 construct: endogenous in cells; host or cells: primary human CD4+CD127lowCD25+ Treg cells from healthy leukopaks
T1 sequence (Q9H2S9 whole entry): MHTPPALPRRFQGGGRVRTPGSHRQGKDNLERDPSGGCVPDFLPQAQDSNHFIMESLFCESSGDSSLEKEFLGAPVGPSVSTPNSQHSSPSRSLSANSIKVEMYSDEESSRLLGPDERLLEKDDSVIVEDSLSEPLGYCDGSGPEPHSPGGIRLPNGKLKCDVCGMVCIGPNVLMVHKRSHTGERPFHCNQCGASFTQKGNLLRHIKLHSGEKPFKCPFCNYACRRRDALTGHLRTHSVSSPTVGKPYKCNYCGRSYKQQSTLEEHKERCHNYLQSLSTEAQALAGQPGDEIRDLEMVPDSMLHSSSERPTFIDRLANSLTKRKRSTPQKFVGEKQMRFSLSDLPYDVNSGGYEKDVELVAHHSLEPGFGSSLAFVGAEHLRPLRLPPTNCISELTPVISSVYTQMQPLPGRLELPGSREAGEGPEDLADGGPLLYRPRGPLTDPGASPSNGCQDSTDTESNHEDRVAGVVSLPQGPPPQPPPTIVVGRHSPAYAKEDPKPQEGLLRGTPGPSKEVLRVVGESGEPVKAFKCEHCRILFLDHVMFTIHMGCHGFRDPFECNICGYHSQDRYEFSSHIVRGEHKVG
T1 sequence (Q96SW2 whole entry): as the sequence (Q96SW2 whole entry) above
T1 sequence (Q16531 whole entry partner): as the sequence (Q16531 whole entry partner) above
Procedure: Human CD4^+ T cells were isolated from fresh healthy leukopaks (Stemcell Technologies) using the RosetteSep Human CD4^+ T cell enrichment cocktail (Stemcell Technologies) and Ficoll density gradient centrifugation. Leukopaks were diluted with an equal volume of phosphate-buffered saline (PBS [Gibco]) supplemented with 2% fetal bovine serum (FBS, VWR Lifescience) and incubated with RosetteSep Human CD4^+ T cell enrichment cocktail for 20 minutes before layering on Ficoll-Paque Plus solution (GE Health Care). The cell-rich interface layer was harvested and washed twice with PBS supplemented with 2% FBS. Regulatory T cells were then isolated manually using the EasySep Human CD4^+CD127^lowCD25^+ Regulatory T cell isolation kit (Stemcell Technologies) according to the manufacturer's instructions. Cells were rested overnight in Roswell Park Memorial Institute (RPMI) 1640 media (Gibco) supplemented with 10% FBS, Pen/Strep (Gibco), MEM-NEAA (Gibco), and sodium pyruvate (Gibco) in a humidified incubator (37 °C, 5% CO2). Cells were then stained for CD4 (clone: RPA-T4, Biolegend), CD25 (clone: 2A3, BD Biosciences), and CD127 (clone: hIL-7R-M21, BD Biosciences). CD4^+CD127^lowCD25^+ cells were sorted on a BD FACS Aria Fusion sorter to a purity of 95%) or greater. Sorted cells were immediately used or cryopreserved for downstream assays.
Fresh or cryopreserved FACS-sorted CD4^+CD127^lowCD25^+ Treg cells were cultured at 25,000-50,000 cells/well of 96-well round bottom plates in RPMI 1640 media (Gibco) supplemented with 10% FBS, Pen/Strep (Gibco), MEM-NEAA (Gibco), and sodium pyruvate (Gibco). Cells were stimulated with Treg Xpander beads (Thermo Fisher) at cells-to-beads ratio of 1:4 in the presence of 500 U/mL recombinant human IL-2 (Proleukin). Compounds were added at titrated doses and cells were incubated at 37 °C, 5% CO2 for 12-13 days. Recombinant human IL-2 and compound were replenished every 2-3 days during the entire culture duration. On day 12 or 13, cells were restimulated with phorbol 12-myristate 13-acetate (PMA,) and ionomycin in the presence of the protein transport inhibitors brefeldin A and monensin (eBioscience Cell Stimulation Cocktail plus protein transport inhibitors, 500x, Catalog number 00-4975-93) before proceeding with flow cytometry staining and analysis.
For flow cytometry staining, cells were washed twice with flow cytometry staining buffer (Thermo Fisher) and incubated in Human Tru-stain Fc block (Biolegend) for 10 minutes before adding eFluor780 viability dye (Thermo Fisher) and surface marker antibody cocktail for 30 minutes at 4 °C. Cells were then fixed and permeabilized by incubation with FoxP3 transcription factor staining buffer (Thermo Fisher) for 30 minutes at 4 °C as per the kit manufacturer's instructions. Cells were washed twice with the Perm/Wash buffer supplied in the kit as per the manufacturer's instructions and incubated overnight at 4 °C with an intracellular antibody cocktail comprised of antibodies specific for the transcription factors shown in Table C. Cells were washed twice with Perm/Wash buffer and resuspended in flow cytometry staining buffer (Thermo Fisher) prior to acquisition. Sample acquisition and analysis was performed using a BD LSRFortessa (BD Biosciences) flow cytometer. Single stain controls for each fluorochrome were prepared using UltraComp eBead Compensation Beads (Thermo Fisher). Data were analyzed using FlowJo version 10 and GraphPad Prism Software. TABLE C

| Compound | IKZF1* Ikaros max % deg. observed (IKZF1 Ikaros) | DC50 (IKZF1 Ikaros) | IKZF3* Aiolos max % deg. observed (IKZF3 Aiolos) | DC50 (IKZF3 Aiolos) | DC50 (IKZF4 Eos; CD4+CD127lowCD25+ Treg cells) | IKZF4*** Eos max % or deg. observed (IKZF4 Eos) | IKZF3 Aiolos Maximum Observed Degradation (IKZF3 Aiolos) | IKZF4 Eos max % deg. observed (IKZF4 Eos; CD4+CD127lowCD25+ Treg cells, 12-13 days with compound) | IKZF1 Ikaros Maximum Observed Degradation (IKZF1 Ikaros) |
| --- | --- | --- | --- | --- | --- | --- | --- | --- | --- |
| Cc1cc(-c2ccc(-c3cn(C4CCC(=O)NC4=O)c(=O)o3)c(F)c2)nc(N)c1COC1CCOCC1 (stereo not drawn) [Example 5, 3-(5-(4-(6-Amino-4-methyl-5-(((tetrahydro-2H-pyran-4-yl)oxy)methyl)pyridin-2-yl)-2-fluorophenyl)-2-oxooxazol-3(2H)-yl)piperidine-2,6-dione] | 56% | 366 nM | 72% | 131 nM | 7 nM | 46% | 72% | 46% | – |
| O=C1CCC(n2cc(-c3ccccc3)oc2=O)C(=O)N1 (stereo not drawn) [Comparative Compound A, 3-(2-oxo-5-phenyloxazol-3(2H)-yl)piperidine-2,6-dione, reference compound] | 74% | 113 nM | 80% | 21 nM | > 1000 nM | 0% | 80% | – | 74% |
| CC1(C)Cc2cc(-c3ccc(-c4cn(C5CCC(=O)NC5=O)c(=O)o4)c(F)c3)nc(N)c2O1 (stereo not drawn) [Example 1, 3-(5-(4-(7-amino-2,2-dimethyl-2,3-dihydrofuro[2,3-c]pyridin-5-yl)-2-fluorophenyl)-2-oxooxazol-3(2H)-yl)piperidine-2,6-dione] | 76% | 53 nM | 76% | 18 nM | 2 nM | 84% | – | – | – |
| CO[C@H]1C[C@H](Oc2c(C)cc(-c3ccc(-c4cn(C5CCC(=O)NC5=O)c(=O)o4)c(F)c3)nc2N)C1 (relative stereo) [Example 2, trans 3-(5-(4-(6-amino-5-(3-methoxycyclobutoxy)-4-methylpyridin-2-yl)-2-fluorophenyl)-2-oxooxazol-3(2H)-yl)piperidine-2,6-dione] | 53% | 132 nM | 58% | 86 nM | 3 nM | 72% | – | – | – |
| O=C1CCC(n2cc(-c3ccc(Br)cc3F)oc2=O)C(=O)N1 (stereo not drawn) [Comparative Compound B, 3-(5-(4-bromo-2-fluorophenyl)-2-oxooxazol-3(2H)-yl)piperidine-2,6-dione, reference compound] | 17% | > 1000 nM | 0% | > 1000 nM | > 1000 nM | 11% | 0% | – | 17% |

Continued by falling DC50 (IKZF1 Ikaros), values first:

| IKZF1* Ikaros max % deg. observed (IKZF1 Ikaros) | DC50 (IKZF1 Ikaros) | IKZF3* Aiolos max % deg. observed (IKZF3 Aiolos) | DC50 (IKZF3 Aiolos) | DC50 (IKZF4 Eos; CD4+CD127lowCD25+ Treg cells) | IKZF4*** Eos max % or deg. observed (IKZF4 Eos) | IKZF3 Aiolos Maximum Observed Degradation (IKZF3 Aiolos) | IKZF4 Eos max % deg. observed (IKZF4 Eos; CD4+CD127lowCD25+ Treg cells, 12-13 days with compound) | IKZF1 Ikaros Maximum Observed Degradation (IKZF1 Ikaros) | Compound |
| --- | --- | --- | --- | --- | --- | --- | --- | --- | --- |
| 67% | 181 nM | 67% | 193 nM | 4 nM | 84% | – | – | – | Cc1cc(-c2ccc(-c3cn(C4CCC(=O)NC4=O)c(=O)o3)c(F)c2)nc(N)c1NCC1CCOCC1 (stereo not drawn) [Example 3, 3-(5-(4-(6-amino-4-methyl-5-(((tetrahydro-2H-pyran-4-yl)methyl)amino)pyridin-2-yl)-2-fluorophenyl)-2-oxooxazol-3(2H)-yl)piperidine-2,6-dione] |
| 80% | 15 nM | 77% | 18 nM | 4 nM | 80% | – | – | – | COC1CCN(Cc2ccc(-c3ccc(-c4cn(C5CCC(=O)NC5=O)c(=O)o4)c(F)c3)nc2N)CC1 (stereo not drawn) [Example 4, 3-(5-(4-(6-amino-5-((4-methoxypiperidin-1-yl)methyl)pyridin-2-yl)-2-fluorophenyl)-2-oxooxazol-3(2H)-yl)piperidine-2,6-dione] |
